Experimental data as given in US12098116B2, “Crystalline prostacyclin (IP) receptor agonist and uses thereof” (United Therapeutics Corporation, priority 2022, dated 2024).
Converted amounts (≈) assume the structure as drawn. Like-named read-outs stand apart in the source and are kept apart here.

How the values were obtained:
[1] = Dynamic Vapour Sorption (DVS); type: physicochemical
Experimental: Approximately, 10 mg of sample was placed into a mesh vapor sorption balance pan and loaded into a DVS-1/DVS Intrinsic/DVS Advantage dynamic vapor sorption balance by Surface Measurement Systems. The sample was subjected to a ramping profile from 40-90% relative humidity (RH) at 10% increments, maintaining the sample at each step until a stable weight had been achieved (dm/dt 0.004%, minimum step length 30 min, maximum step length 500 min) at 25° C. After completion of the sorption cycle, the sample was dried using the same procedure to 0% RH and then a second sorption cycle back to 40% RH. Two cycles were performed. The weight change during the sorption/desorption cycles were plotted, allowing for the hygroscopic nature of the sample to be determined.

[2] = Solid form conversion on drying or heating, followed by XRPD; type: physicochemical
[3] = cited from earlier work
[4] = cited from earlier work; remark: listed apart in the source
[5] = healthy volunteer population, cited from earlier work
[6] = Solvent solubility study of ralinepag; type: physicochemical; conditions: thermodynamic from solid
Experimental: To prepare amorphous material for solubility testing, 330 mg of ralinepag was dissolved in 33 mL tert-butanol (with gentle heating applied via a heatgun) before being split evenly into 33 vials (˜10 mg of ralinepag per sample). […] One vial of solid was analyzed by XRPD to confirm that ralinepag had been rendered amorphous. However, as in Example 2g, a poorly crystalline Pattern 2 was observed. 32 solvents and solvent systems were added to 32×10 mg of lyophilized ralinepag in 50 μL aliquots for the first 300 μL or until complete dissolution was noted. If complete dissolution was not observed, 100 μL aliquots were added thereafter up to 1 mL total solvent. Between each addition, the mixture was manually shaken for a few seconds and if complete dissolution was not apparent, the mixture was heated to about 40° C. and checked again. Where complete dissolution occurred, the solvent was allowed to evaporate at ambient temperature. Where complete dissolution was not observed, the solids were isolated via centrifuge filtration. Recovered solids were analyzed by XRPD.

[7] = system: human pulmonary artery smooth muscle cell (PASMC); conditions: head-to-head in vitro; cited from earlier work
pulmonary artery = conditions: head-to-head in vitro; cited from earlier work
IP receptor = IP receptor (Homo sapiens, UniProt P43119); conditions: head-to-head in vitro; cited from earlier work
Chain of IP receptor (P43119 whole entry): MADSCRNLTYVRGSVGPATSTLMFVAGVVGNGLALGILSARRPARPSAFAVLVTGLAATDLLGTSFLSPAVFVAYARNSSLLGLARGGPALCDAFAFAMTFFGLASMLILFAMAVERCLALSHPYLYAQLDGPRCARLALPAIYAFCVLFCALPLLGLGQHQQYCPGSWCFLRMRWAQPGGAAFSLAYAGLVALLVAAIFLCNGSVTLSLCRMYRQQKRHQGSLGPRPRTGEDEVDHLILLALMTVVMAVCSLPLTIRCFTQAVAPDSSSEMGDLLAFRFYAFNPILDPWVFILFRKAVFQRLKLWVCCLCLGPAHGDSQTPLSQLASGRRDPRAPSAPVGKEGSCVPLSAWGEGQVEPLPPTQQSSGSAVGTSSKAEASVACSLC

In the case of O=C(O)COC[C@H]1CC[C@H](COC(=O)N(c2ccccc2)c2ccc(Cl)cc2)CC1 [Form 1], the Hygroscopic nature ([1]; DVS, 25° C.) is reported as “non-hygroscopic”, the “XRPD of the solid after DVS analysis” value ([1]; after DVS between 0% and 90% RH) is reported as “unchanged” and the Reversible water uptake ([1]; between 0% and 90% RH, 25° C.) is reported as 0.1 % (w/w).
In the case of O=C(O)COC[C@H]1CC[C@H](COC(=O)N(c2ccccc2)c2ccc(Cl)cc2)CC1 [Pattern 2], the “Solid form after drying (XRPD)” value ([2]; dried under vacuum at 40° C. for approximately 21 h) is reported as “retained” and the “Solid form conversion on heating” value ([2]; on heating) is reported as “converts to Form 1”.
With O=C(O)COC[C@H]1CC[C@H](COC(=O)N(c2ccccc2)c2ccc(Cl)cc2)CC1 [Pattern 4] the “Solid form conversion upon drying” value ([2]; made from DMA/water) was “converts to a predominantly amorphous form with some Form 1 peaks present” and the “Solid form conversion upon drying” value ([2]; made from NMP/water, upon drying (even with air drying)) was “converts to Form 1”.
For CC(C)N(CCCCOCC(=O)NS(C)(=O)=O)c1cnc(-c2ccccc2)c(-c2ccccc2)n1 [Selexipag], the “Effect on PVR” value ([3]; after 17 weeks of treatment) is given as “reduce PVR” and the “Reduction in a composite morbidity and mortality endpoint” value ([3]; in vivo) is given as 40%.
In the case of CCCCC[C@H](O)/C=C/[C@@H]1[C@H]2C/C(=C/CCCC(=O)O)O[C@H]2C[C@H]1O [epoprostenol], the “Stability at room temperature” value [4] is given as “unstable at room temperature”.
For O=C(O)COC[C@H]1CC[C@H](COC(=O)N(c2ccccc2)c2ccc(Cl)cc2)CC1 [ralinepag, 2-([(1r,4r)-4-(((4-chlorophenyl)(phenyl)carbamoyloxy)methyl)-cyclohexyl]methoxy)acetic acid], the “Variability in plasma concentrations between doses (peak:trough ratio)” value ([5]; compared with selexipag) is given as “less variability”, the “t1/2 compared with selexipag (and its active metabolite MRE-269)” value ([5]; single- and multiple-dose studies) is given as “longer t1/2 than selexipag” and the solubility ([6]; aqueous with cosolvent or surfactant or cyclodextrin, solvent ethanol/water (48:52% v/v), read-out: Estimated Solubility) is given as < 10 mg/mL. The solubility ([6]; organic solvent or mixture, in 29 of the 32 solvent systems, poorly crystalline ralinepag, read-out: Solubility, summary of the screen) was ≥ 10 mg/mL, the solubility ([6]; organic solvent or mixture, solvent 1,1-dimethoxymethane, heated to 40° C., lyophilized poorly crystalline material, read-out: Estimated Solubility) was 50 mg/mL (≈ 116 mM) and the solubility ([6]; organic solvent or mixture, solvent 1,2-dichloroethene, heated to 40° C., read-out: Estimated Solubility) was 200 mg/mL (≈ 463 mM). The solubility ([6]; organic solvent or mixture, solvent 1,4-dioxane, heated to 40° C., read-out: Estimated Solubility) was 200 mg/mL (≈ 463 mM), the solubility ([6]; organic solvent or mixture, solvent 1-butanol, heated to 40° C., read-out: Estimated Solubility) was 50 mg/mL (≈ 116 mM) and the solubility ([6]; organic solvent or mixture, solvent 1-propanol, heated to 40° C., read-out: Estimated Solubility) was 50 mg/mL (≈ 116 mM). The solubility ([6]; organic solvent or mixture, solvent 2-ethoxyethanol, heated to 40° C., read-out: Estimated Solubility) was 200 mg/mL (≈ 463 mM), the solubility ([6]; organic solvent or mixture, solvent 2-methyl-1-propanol, heated to 40° C., read-out: Estimated Solubility) was 50 mg/mL (≈ 116 mM) and the solubility ([6]; organic solvent or mixture, solvent 2-methyltetrahydrofuran, read-out: Estimated Solubility) was 200 mg/mL (≈ 463 mM). For the same compound, the solubility ([6]; organic solvent or mixture, solvent 2-propanol, heated to 40° C., read-out: Estimated Solubility) was 50 mg/mL (≈ 116 mM), the solubility ([6]; organic solvent or mixture, solvent N,N-dimethylacetamide, read-out: Estimated Solubility) was 200 mg/mL (≈ 463 mM) and the solubility ([6]; organic solvent or mixture, solvent N,N-dimethylformamide, read-out: Estimated Solubility) was 200 mg/mL (≈ 463 mM). The solubility ([6]; organic solvent or mixture, solvent N-methyl-2-pyrrolidone, read-out: Estimated Solubility) was 200 mg/mL (≈ 463 mM), the solubility ([6]; organic solvent or mixture, solvent acetone, read-out: Estimated Solubility) was 200 mg/mL (≈ 463 mM) and the solubility ([6]; organic solvent or mixture, solvent acetonitrile, heated to 40° C., read-out: Estimated Solubility) was 40 mg/mL (≈ 92.6 mM). The solubility ([6]; organic solvent or mixture, solvent anisole, read-out: Estimated Solubility) was 200 mg/mL (≈ 463 mM), the solubility ([6]; organic solvent or mixture, solvent benzyl alcohol, read-out: Estimated Solubility) was 200 mg/mL (≈ 463 mM) and the solubility ([6]; organic solvent or mixture, solvent butyl acetate, heated to 40° C., read-out: Estimated Solubility) was 50 mg/mL (≈ 116 mM). The solubility ([6]; organic solvent or mixture, solvent dimethylsulfoxide, heated to 40° C., read-out: Estimated Solubility) was 200 mg/mL (≈ 463 mM), the solubility ([6]; organic solvent or mixture, solvent ethanol/water (93:7% v/v), heated to 40° C., read-out: Estimated Solubility) was 100 mg/mL (≈ 232 mM) and the solubility ([6]; organic solvent or mixture, solvent ethanol/water (98.5:1.5% v/v), read-out: Estimated Solubility) was 100 mg/mL (≈ 232 mM). The solubility ([6]; organic solvent or mixture, solvent ethanol, heated to 40° C., read-out: Estimated Solubility) was 100 mg/mL (≈ 232 mM), the solubility ([6]; organic solvent or mixture, solvent ethyl acetate, heated to 40° C., read-out: Estimated Solubility) was 100 mg/mL (≈ 232 mM) and the solubility ([6]; organic solvent or mixture, solvent heptane, read-out: Estimated Solubility) was < 10 mg/mL. It also gave a solubility ([6]; organic solvent or mixture, solvent isopropyl acetate, heated to 40° C., read-out: Estimated Solubility) of 66.7 mg/mL (≈ 154 mM), a solubility ([6]; organic solvent or mixture, solvent methanol, heated to 40° C., read-out: Estimated Solubility) of 200 mg/mL (≈ 463 mM) and a solubility ([6]; organic solvent or mixture, solvent methylethyl ketone, heated to 40° C., read-out: Estimated Solubility) of 200 mg/mL (≈ 463 mM). For the same compound, the solubility ([6]; organic solvent or mixture, solvent methylisobutyl ketone, heated to 40° C., read-out: Estimated Solubility) was 100 mg/mL (≈ 232 mM), the solubility ([6]; organic solvent or mixture, solvent tert-butylmethyl ether, heated to 40° C., read-out: Estimated Solubility) was 25 mg/mL (≈ 57.9 mM) and the solubility ([6]; organic solvent or mixture, solvent tetrahydrofuran, heated to 40° C., read-out: Estimated Solubility) was 200 mg/mL (≈ 463 mM). For the same compound, the solubility ([6]; organic solvent or mixture, solvent toluene, heated to 40° C., read-out: Estimated Solubility) was 14.3 mg/mL (≈ 33.1 mM), the solubility ([6]; solvent water, read-out: Estimated Solubility) was < 10 mg/mL and the “Inhibition of human PASMC proliferation compared with selexipag” value [7] was “better inhibition”. For the same compound, the “Pulmonary artery vasodilation compared with selexipag” value (pulmonary artery) was “improved” and the “Increase of cellular cAMP levels compared with selexipag” value (IP receptor) was “more potent and efficacious than selexipag”.
